Reference: US20180162862A1 (President and Fellows of Harvard College, priority 2015, published 2018)
In brackets after ≈: the same amount, converted by molar mass. Read-outs that look alike come from different tables or passages of the source.

What was measured:
[1] = target: T1, S. aureus SgtB (SgtB ΔTM) (Staphylococcus aureus, UniProt Q99T05); experiment: Dose-dependent displacement of probe CMG121 from S. aureus SgtB by fluorescence polarization; format: binding; conditions: 75 nM CMG121, 1.0-1.5 μM SgtB, pH 8.0, 30 min at 4° C., read-out: SgtB (FP, probe CMG121 displacement) IC50
T1 construct: SgtB ΔTM of S. aureus; made in house
Protocol: FIGS. 10A to 10E show dose-dependent displacement of probe CMG121 from S. aureus SgtB with exemplified compounds determined by fluorescence polarization.
All of the references are incorporated by reference herein. • SgtB ΔTM of S. aureus (referred to as “SgtB”), • PBP2a (A68-N728) of E. faecalis (referred to as “PBP2a”)
Probe compound CMG121 was prepared as previously described (Gampe et al., J. Am. Chem. Soc. 2013, 135 (10), 3776-3779; U.S. Provisional Patent Application Nos. 61/621,229 filed on Apr. 6, 2012).
(§1) I. Dose-Dependent Displacement of CMG121 from S. aureus SgtB by Fluorescence Polarization
(§2) A black 384 well plate (Corning NBS Low Volume No. 3820) was filled (10 μL per well) with an equilibrated solution containing 10 mM TRIS (pH=8.0), 100 mM NaCl, 75 nM CMG121, and 1.0-1.5 μM S. aureus SgtB (depending on protein batch). Due to presence of 8 mM CHAPS detergent in the buffer of the S. aureus SgtB stock, the final assay solution contains 100-160 μM CHAPS. Using an HP D300 Digital Dispenser, for each compound a 1/1 dilution series (12 wells) of the primary hit compound in DMSO (normalized to 1 μL with DMSO) was prepared and added to the aforementioned assay solution. The plate was incubated at 4° C. for 30 min and read with a Perkin Elmer EnVision microplate reader (FP-read out, excitation: 480 nm; emission: 535 nm).
(§3) FIGS. 10A-E show values of reduction of fluorescence polarization for exemplified compounds. […] In the primary assay, FP was read after 30 min at 4° C., compound concentration was ca. 100 μM, and 90% reduction in FP was threshold for scoring hits (Gampe et al., J. Am. Chem. Soc. 2013, 135 (10), 3776-3779; U.S. Provisional Patent Application, U.S. Ser. No. 61/621,229, filed on Apr. 6, 2012; International Application No. PCT/US2013/030800 filed on Mar. 13, 2013).
(§4) The values were determined in two independent experiments. IC50=10 μM; Hill slope: −0.92.

S. aureus SgtB = S. aureus SgtB (Staphylococcus aureus, UniProt Q99T05); experiment: as above; format: binding; set-up: made in house
Protocol: as §1, §2, §3, §4

S. aureus ATCC 29213 = experiment: MIC test according to CLSI M7-A9, S. aureus ATCC 29213; format: cell-based; conditions: Staphylococcus aureus, ATCC29213, CLSI M7-A9, CAMHB
Procedure, shortened: (§5)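 Per CLSI M7-A9, DMSO stocks diluted in cation-adjusted Mueller Hinton broth, plates incubated 24 h at 37 °C in air. MIC is the lowest concentration giving complete inhibition of visible growth, read visually and at 600 nm.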

S. aureus ATCC 43300 = experiment: MIC test according to CLSI M7-A9, S. aureus ATCC 43300; format: cell-based; conditions: Staphylococcus aureus, ATCC43300, CLSI M7-A9, CAMHB
Procedure, shortened: as §5

H. influenzae ATCC 49247 = experiment: MIC test according to CLSI M7-A9, H. influenzae ATCC 49247; format: cell-based; conditions: Haemophilus influenzae, ATCC49247; CLSI M7-A9, Haemophilus Test Medium, 24 h
Protocol: MIC Test (H. influenzae ATCC 49247)
Susceptibility testing of H. influenzae ATCC 49247 was performed according to Clinical Laboratory Standard Institute (CLSI) guidelines M7-A9. Test articles were stored at room temperature prior to use, then dissolved in filtered sterile DMSO. Stock DMSO solutions were diluted further in Haemophilus Test Medium (HTM) to provide appropriate test concentrations. Cultures of H. influenzae ATCC 49247 were added in accordance with CLSI guidelines and plates incubated at 37° C. in air for 24 h. Endpoints were determined visually (and by spectrophotometer at 600 nm) and the minimum inhibitory concentration (MIC) defined as the lowest concentration of test articles resulting in complete inhibition of visible bacterial growth.

MSSA Newman = experiment: MIC test in TSB medium with MTT staining, MSSA Newman; format: cell-based, Staphylococcus aureus; conditions: Staphylococcus aureus, TSB, 37° C.
Protocol: MIC Test (Methicillin Susceptible Staphylococcus aureus (MSSA Newman))
Overnight cultures of MSSA Newman were grown up in TSB medium at 37° C. The cultures obtained were normalized with TSB to OD600=0.6 and diluted 100-fold. 1.5 μL of a dilution series of Example Compounds in DMSO (100×, in duplicate), and the diluted bacterial culture (150 μL) was added to wells of a sterile, clear 96 well plate and incubated at 37° C.

S. aureus Newman = experiment: MIC test according to CLSI M7-A9, S. aureus Newman; format: cell-based; conditions: Staphylococcus aureus, CLSI M7-A9, CAMHB, 24 h (Table 3), read-out: S. aureus ATCC Newman MIC
Procedure, shortened: as §5

[2] = 24 h (Table 2), read-out: S. aureus ATCC 29213 MIC at 24 h
[3] = 24 h (Table 2), read-out: S. aureus ATCC 43300 MIC at 24 h
[4] = MTT staining after 7 h, read-out: MSSA Newman MIC at 7 h
[5] = MTT staining after 24 h, read-out: MSSA Newman MIC at 24 h
[6] = 24 h (Table 3), read-out: S. aureus ATCC 29213 MIC

MIC (S. aureus ATCC 29213; [2]) [mg/L] | MIC (S. aureus ATCC 43300; [3]) [mg/L] | MIC (MSSA Newman; [4]) [mg/L] | MIC (MSSA Newman; [5]) [mg/L] | SMILES | other results
 |  |  |  | Cc1ccc(OCCCSc2nc(-c3ccc(C(C)(C)C)cc3)nc3cc(=O)[nH]n23)cc1C [Compound 1882F04] | IC50 ([1]; Figure 10F): 26 µM
 |  |  |  | Cc1ccc(C(C)C)c(OCCSc2nc(-c3ccccc3F)nc3cc(=O)[nH]n23)c1 [Compound 1882J21] | IC50 ([1]; Figure 10F): > 200 µM
 |  |  |  | Cc1cccc(OCCCSc2nc(-c3ccc(C(C)(C)C)cc3)nc3cc(=O)[nH]n23)c1C [Compound 1882L04] | IC50 ([1]; Figure 5): 7 µM
 |  |  |  | Cc1ccc(-c2nc(SCCOc3ccccc3C)n3[nH]c(=O)cc3n2)cc1 [Compound 1882P19] | IC50 ([1]; Figure 10F): > 200 µM
 |  |  |  | Cc1ccc(CSc2nc(-c3ccc(C(C)(C)C)cc3)nc3cc(=O)[nH]n23)cc1 [Entry 9] | IC50 (S. aureus SgtB): 112 µM
 |  |  |  | COc1ccc(CNc2nc(-c3ccc(C(C)(C)C)cc3)nc3cc(=O)[nH]n23)cc1 [Entry 14] | IC50 (S. aureus SgtB): > 200 µM
 |  |  |  | CNc1nc(-c2ccc(C(C)(C)C)cc2)nc2cc(=O)[nH]n12 [Entry 16] | IC50 (S. aureus SgtB): > 200 µM
 |  |  |  | CC(C)(C)c1ccc(-c2nc(N)n3[nH]c(=O)cc3n2)cc1 [Entry 17] | IC50 (S. aureus SgtB): > 200 µM
 |  |  |  | CC(C)(C)c1ccc(-c2nc(O)n3[nH]c(=O)cc3n2)cc1 [Entry 18] | IC50 (S. aureus SgtB): 34 µM
64 (≈ 168 µM) | 64 (≈ 168 µM) |  |  | CN1CCC(Nc2nc(-c3ccc(C(C)(C)C)cc3)nc3cc(=O)[nH]n23)CC1 [Example 19, 2-(4-tert-butylphenyl)-4-[(1-methylpiperidin-4-yl)amino]-6H,7H-pyrazolo[1,5-a][1,3,5]triazin-7-one] | MIC (H. influenzae ATCC 49247): 64 mg/L (≈ 168 µM)
8 (≈ 19.3 µM) | 16 (≈ 38.5 µM) | 1.6 (≈ 3.85 µM) | 3.1 (≈ 7.46 µM) | CC(C)(C)c1ccc(-c2nc(NCCCCc3ccccc3)n3[nH]c(=O)cc3n2)cc1 [Example 29, 2-(4-tert-butylphenyl)-4-[(4-phenylbutyl)amino]-6H,7H-pyrazolo[1,5-a][1,3,5]triazin-7-one] | 
> 32 | > 32 | 1.6 (≈ 3.59 µM) | 6.2 (≈ 13.9 µM) | Cc1cccc(OCCCNc2nc(-c3ccc(C(C)(C)C)cc3)nc3cc(=O)[nH]n23)c1C [Example 30, 2-(4-tert-butylphenyl)-4-{[3-(2,3-dimethylphenoxy)propyl]amino}-6H,7H-pyrazolo[1,5-a][1,3,5]triazin-7-one] | 
8 (≈ 18.9 µM) | 16 (≈ 37.8 µM) |  |  | CC(C)(C)c1ccc(-c2nc(NCCCOC3CCCCC3)n3[nH]c(=O)cc3n2)cc1 [Example 31, 2-(4-tert-butylphenyl)-4-{[3-(cyclohexyloxy)propyl]amino}-6H,7H-pyrazolo[1,5-a][1,3,5]triazin-7-one] | MIC (H. influenzae ATCC 49247): 32 mg/L (≈ 75.5 µM)
2 (≈ 4.3 µM) | 4 (≈ 8.6 µM) | 3.1 (≈ 6.67 µM) | 3.1 (≈ 6.67 µM) | Cc1cc(NCCCNc2nc(-c3ccc(C(C)(C)C)cc3)nc3cc(=O)[nH]n23)ccc1Cl [Example 47, 2-(4-tert-butylphenyl)-4-({3-[(4-chloro-3-methylphenyl)amino]propyl}amino)-6H,7H-pyrazolo[1,5-a][1,3,5]triazin-7-one] | 
32 (≈ 71.8 µM) | 16 (≈ 35.9 µM) | 3.1 (≈ 6.96 µM) | 6.2 (≈ 13.9 µM) | Cc1ccc(OCCCNc2nc(-c3ccc(C(C)(C)C)cc3)nc3cc(=O)[nH]n23)cc1C [Example 49, 2-(4-tert-butylphenyl)-4-{[3-(3,4-dimethylphenoxy)propyl]amino}-6H,7H-pyrazolo[1,5-a][1,3,5]triazin-7-one] | 
> 64 | > 64 | 12.5 (≈ 27.5 µM) | 25 (≈ 55.1 µM) | CC(C)(C)c1ccc(-c2nc(NCCCOc3cnc(Cl)nc3)n3[nH]c(=O)cc3n2)cc1 [Example 52, 2-(4-tert-butylphenyl)-4-({3-[(2-chloropyrimidin-5-yl)oxy]propyl}amino)-6H,7H-pyrazolo[1,5-a][1,3,5]triazin-7-one] | 
> 64 | 8 (≈ 17.9 µM) | > 100 | > 100 | Cc1ccnc(C)c1OCCCNc1nc(-c2ccc(C(C)(C)C)cc2)nc2cc(=O)[nH]n12 [Example 53, 2-(4-tert-butylphenyl)-4-({3-[(2,4-dimethylpyridin-3-yl)oxy]propyl}amino)-6H,7H-pyrazolo[1,5-a][1,3,5]triazin-7-one] | 
16 (≈ 37.8 µM) | 8 (≈ 18.9 µM) | 1.6 (≈ 3.78 µM) | 3.1 (≈ 7.33 µM) | Cc1ccc(-c2nc(NCCCNc3ccc(Cl)c(C)c3)n3[nH]c(=O)cc3n2)cc1 [Example 68, 4-({3-[(4-chloro-3-methylphenyl)amino]propyl}amino)-2-(4-methylphenyl)-6H,7H-pyrazolo[1,5-a][1,3,5]triazin-7-one] | 
 |  |  |  | CC(C)(C)c1ccc(-c2nc(NCCNC3Cc4ccccc4C3)n3[nH]c(=O)cc3n2)cc1 [Example 90, 2-(4-tert-Butylphenyl)-4-({2-[(2,3-dihydro-1H-inden-2-yl)amino]ethyl}amino)-6H,7H-pyrazolo[1,5-a][1,3,5]triazin-7-one] | MIC (S. aureus ATCC 29213; [6]): 16 mg/L (≈ 36.2 µM); MIC (S. aureus ATCC 43300; 24 h (Table 3), read-out: S. aureus ATCC 43300 MIC): 16 mg/L (≈ 36.2 µM); MIC (S. aureus Newman): 16 mg/L (≈ 36.2 µM); MIC (H. influenzae ATCC 49247): 16 mg/L (≈ 36.2 µM)
 |  |  |  | Cc1ccc(Cc2c(=O)[nH]n3c(=S)[nH]c(-c4ccc(C(C)(C)C)cc4)nc23)cn1 [Example 112, 2-(4-tert-butylphenyl)-8-[(6-methylpyridin-3-yl)methyl]-4-sulfanylidene-3H,4H,6H,7H-pyrazolo[1,5-a][1,3,5]triazin-7-one] | MIC (S. aureus ATCC 29213; [6]): 8 mg/L (≈ 19.7 µM); MIC (S. aureus Newman): 4 mg/L (≈ 9.86 µM); MIC (H. influenzae ATCC 49247): 16 mg/L (≈ 39.5 µM)
 |  |  |  | O=c1[nH]n2c(=S)[nH]c(C34CC5CC(CC(C5)C3)C4)nc2c1Cc1ccccc1 [Example 121, 2-(adamantan-1-yl)-8-benzyl-4-sulfanylidene-3H,4H,6H,7H-pyrazolo[1,5-a][1,3,5]triazin-7-one] | MIC (S. aureus ATCC 29213; [6]): 4 mg/L (≈ 10.2 µM); MIC (S. aureus Newman): 4 mg/L (≈ 10.2 µM); MIC (H. influenzae ATCC 49247): 8 mg/L (≈ 20.4 µM)
 |  |  |  | Cc1cc(OCCCNc2nc(-c3cc[n+]([O-])cc3)nc3cc(=O)[nH]n23)ccc1Cl [Example 126, 4-(4-{[3-(4-chloro-3-methylphenoxy)propyl]amino}-7-oxo-6H,7H-pyrazolo[1,5-a][1,3,5]triazin-2-yl)pyridin-1-ium-1-olate] | MIC (H. influenzae ATCC 49247): 1 mg/L (≈ 2.34 µM)
